According to patent US20070237712A1, “Methods of Redistributing Apical Target Antigens to Detect and Treat Cellular Proliferative Disease” (priority 2004, published 2007):
Entries after “also recorded” stand apart in the source; their conditions may differ.

Experiments:
Assay type in all cases: cell-based
microtubule cytoskeleton = experiment: Immunofluorescence analysis of alpha-tubulin (microtubule integrity); settings: MDCK-PSMA cells, 2 μM drug, 3 hours; FIG. 6B-D
Protocol: (§1) MDCK cells (clone II) were obtained from the ATCC (Manassas, Va.) and cultured in DMEM (Gibco BRL, Rockville, Md.) supplemented with 10% FBS, 2 mM L-glutamine, 25 units/ml penicillin, 25 μg/ml streptomycin, and 100 μM non-essential amino acids. Cells were grown at 37° C. in a humidified incubator with 5% CO2. Cells were treated for 10 hours with 10 mM sodium butyrate to enhance PSMA expression. For experiments involving inhibition of N-glycosylation or microtubule depolymerization, cells were treated for 3 hours with 5 μg/ml tunicamycin (Sigma, St. Louis, Mo.) or 4 μg/ml nocodazole (Sigma), or 2 μM vinblastine, vincristine, or vinorelbine (Sigma) in DMEM at 37° C. prior to the indicated experiment, unless otherwise noted.
Tissue sections and MDCK cells were fixed in cold methanol at −20° C. for 30 minutes. Following fixation, specimens were placed in humidified chambers, washed with phosphate buffered saline containing 0.1 mM CaCl2 and 1 mM MgCl2 and 0.5% bovine serum albumin (PBS-CM-BSA), incubated 1 hour with primary antibody, washed with PBS-CM-BSA, incubated 30 minutes in secondary antibody, washed with PBS-CM-BSA, rinsed with distilled water, and mounted in Vectashield (Vector, Burlingame, Calif.).

MDCK-PSMA cells [1] = experiment: Domain specific internalization assay of J591; settings: MDCK-PSMA monolayers, 2 μM drug 3 hours; for J591 uptake from the apical surface after drug treatment: then 5 μg/ml J591 30 minutes in apical chamber, FIG. 6F-H; for J591 internalization from the basolateral surface after drug treatment: then 5 μg/ml J591 30 minutes in basolateral chamber, FIG. 6J-L
Protocol: MDCK-PSMA cells were grown on […] pore size polycarbonate transwell filters (Corning, Corning, N.Y.) and grown to confluence as measured by transepithelial electrical resistance (TER) using an EVOM Epithelial Voltometer (World Precision Instruments, Sarasota, Fla.). Values were normalized for the area of the filter after subtracting the background resistance of a filter without cells. TER of 220-250Ω·cm^2 is indicative of the presence of functional tight junctions (24). Cells were treated with 2 μM of vinblastine, vincristine, or vinorelbine at 37° C. for 3 hours and subsequently incubated at 37° C. for 30 minutes in the presence of the indicated drug and 5 μg/ml of J591 added to either the apical or basolateral chamber. Cells were rinsed in PBS-CM, fixed, and subject to immunofluorescence analysis with FITC-conjugated secondary antibody. Single channel digital microscopic images were collected with an Olympus AX70 upright microscope using identical exposure parameters and analyzed with SPOT imaging software, version 4.0.4 (Diagnostic Instruments, Inc., Sterling Heights, Mich.).

PSMA [2] = experiment: Surface immunofluorescence of PSMA; settings: MDCK-PSMA cells treated with nocodazole; data not shown
Protocol: as §1
For cell surface staining, MDCK cells were grown on transwell filters and the transepithelial electrical resistance (TER) was determined using an EVOM Epithelial Voltohmeter (World Precision Instruments, Sarasota, Fla.). […]
Confocal microscopy was performed using a Fluoview laser scanning confocal microscope (Olympus America, Melville, N.Y.) as described (25). To detect FITC and propidium iodide, samples were excited with krypton and argon lasers and light emitted between 525 and 540 nm was recorded for FITC and above 630 nm for propidium iodide. Images were generated and analyzed using the Fluoview image analysis software, version 2.1.39 (Olympus America).

PSMA [3] = experiment: Antibody internalization trafficking assay (pulse-chase with mAb J591 in apical or basolateral chamber); settings: MDCK-PSMA cells pulsed and chased in the presence of nocodazole (three hours); FIG. 5C
Protocol: as §1
Confluent monolayers of MDCK-PSMA cells on transwell filters were rinsed twice and incubated for 30 minutes in starving media [cystine/methionine free DMEM (CellGro, Herndon, Va.)] supplemented with 0.2% BSA. […]
For the antibody internalization trafficking assay, MDCK cells were metabolically labeled and chased in DMEM containing 5 μg/ml of mAb J591 added to either the apical or basolateral chamber. […] The relative amount of PSMA for each was calculated as a percentage of the total amount of labeled PSMA precipitated throughout the course of the experiment, as quantified by densitometry.

PSMA [4] = experiment: Selective cell surface biotinylation assay of PSMA at apical or basolateral plasma membrane
Protocol: as §1
(§2) MDCK cells were grown to confluence on transwell filters, as determined by TER, and biotinylation of the apical or basolateral surface was performed as described (25). […]
Samples were separated on 10% SDS polyacrylamide gels and transferred to nitrocellulose. […] After washing three times in PBST and once in PBS, bound antibody was detected by peroxidase-catalyzed ECL-Plus (Amersham, Buckinghamshire, UK). Densitometric analysis and quantification of bands was performed using ImageQuant software (Molecular Dynamics, Sunnyvale, Calif.). […]

Na,K-ATPase = experiment: Cell surface biotinylation / immunoblot of basolateral marker Na,K-ATPase; settings: MDCK-PSMA cells treated with nocodazole; FIG. 5B
Protocol: as §1, §2
Samples were separated on 10% SDS polyacrylamide gels and transferred to nitrocellulose. […] After washing three times in PBST and once in PBS, bound antibody was detected by peroxidase-catalyzed ECL-Plus (Amersham, Buckinghamshire, UK). Densitometric analysis and quantification of bands was performed using ImageQuant software (Molecular Dynamics, Sunnyvale, Calif.).

MDCK-PSMA cells [5] = experiment: Post-Golgi analysis assay: co-localization of PSMA and Na,K-β-GFP vesicles after 20° C. block; settings: data not shown
Protocol: MDCK-PSMA cells transiently transfected to express Na,K-β-GFP were grown on glass coverslips and treated with nocodazole or tunicamycin. Cells were incubated for 6 hours at 20° C. to accumulate newly synthesized protein in the Golgi and TGN, subsequently transferred to 37° C. for 30 minutes, and subject to immunofluorescence analysis as described above. Laser scanning confocal microscopy was performed using a Zeiss Axiovert 200 inverted microscope (Carl Zeiss, Inc, Thornwood, N.Y.). Samples were excited with Argon and Helium/Neon lasers and single channel images were generated and analyzed using the Zeiss LSM 510 Meta imaging system (Carl Zeiss, Inc.) by recording light emitted between 505 and 543 nm for GFP and above 560 nm for CY3.

| Compound | depolymerization of the microtubule cytoskeleton (microtubule cytoskeleton) | J591 uptake from the apical surface after drug treatment (MDCK-PSMA cells [1]) | J591 internalization from the basolateral surface after drug treatment (MDCK-PSMA cells [1]) | also measured |
| --- | --- | --- | --- | --- |
| CC[C@]1(O)C[C@@H]2CN(CCc3c([nH]c4ccccc34)[C@@](C(=O)OC)(c3cc4c(cc3OC)N(C)[C@H]3[C@@](O)(C(=O)OC)[C@H](OC(C)=O)[C@]5(CC)C=CCN6CC[C@]43[C@@H]65)C2)C1 [vinblastine] | Extensive microtubule depolymerization | also taken up from the apical surface | dramatic increase |  |
| COC(=O)Nc1nc2cc(C(=O)c3cccs3)ccc2[nH]1 [nocodazole, methyl[5-(2-thienyl-carbonyl)-1H-benzimidazol-2-yl]-carbamate] |  |  |  | PSMA expression at the basolateral plasma membrane relative to untreated cells (PSMA [2]): increased PSMA expression at the basolateral plasma membrane; radiolabeled PSMA precipitated with J591 in apical versus basolateral chamber (polarized delivery of PSMA) (PSMA [3]): equivalent levels; also recorded: abolished; distribution of surface PSMA between apical and basolateral plasma membrane (PSMA [4]; MDCK-PSMA cells treated with nocodazole (4 μg/ml, 3 hours), FIG. 5A): homogeneous distribution; polarity of the basolateral marker Na,K-ATPase (Na,K-ATPase): unaffected; co-localization of PSMA and Na,K-β-GFP in post-Golgi vesicles (MDCK-PSMA cells [5]; in the presence of nocodazole, after release from 20° C. block): did not show an increased co-localization |
| CC[C@]1(O)C[C@H]2CN(CCc3c([nH]c4ccccc34)[C@@](C(=O)OC)(c3cc4c(cc3OC)N(C=O)[C@H]3[C@@](O)(C(=O)OC)[C@H](OC(C)=O)[C@]5(CC)C=CCN6CC[C@]43[C@@H]65)C2)C1 [vincristine] | Extensive microtubule depolymerization | also taken up from the apical surface | dramatic increase |  |
| CCC1=C[C@@H]2CN(C1)Cc1c([nH]c3ccccc13)[C@@](C(=O)OC)(c1cc3c(cc1OC)N(C)[C@H]1[C@@](O)(C(=O)OC)[C@H](OC(C)=O)[C@]4(CC)C=CCN5CC[C@]31[C@@H]54)C2 [vinorelbine] | Extensive microtubule depolymerization | also taken up from the apical surface | dramatic increase |  |
| tunicamycin |  |  |  | distribution of surface PSMA between apical and basolateral plasma membrane (PSMA [4]; MDCK-PSMA cells metabolically labeled in the presence of tunicamycin (10 μg/ml, 4 hours), FIG. 4): equivalent levels at both plasma membrane surfaces; level of co-localization of post-Golgi vesicles containing PSMA and Na,K-ATPase (MDCK-PSMA cells [5]; MDCK-PSMA cells incubated with tunicamycin, 20° C. block then 37° C., 38/88 vesicles): approximately 43% |
